Like-named read-outs stand apart in the source and are kept apart here.
Target: T1, CYP2B6 (Homo sapiens, UniProt P20813)
T1 construct: tissue Corning Gentest BD UltraPool HLM 150; host or cells: pooled human liver microsomes
T1 sequence (P20813 1-491): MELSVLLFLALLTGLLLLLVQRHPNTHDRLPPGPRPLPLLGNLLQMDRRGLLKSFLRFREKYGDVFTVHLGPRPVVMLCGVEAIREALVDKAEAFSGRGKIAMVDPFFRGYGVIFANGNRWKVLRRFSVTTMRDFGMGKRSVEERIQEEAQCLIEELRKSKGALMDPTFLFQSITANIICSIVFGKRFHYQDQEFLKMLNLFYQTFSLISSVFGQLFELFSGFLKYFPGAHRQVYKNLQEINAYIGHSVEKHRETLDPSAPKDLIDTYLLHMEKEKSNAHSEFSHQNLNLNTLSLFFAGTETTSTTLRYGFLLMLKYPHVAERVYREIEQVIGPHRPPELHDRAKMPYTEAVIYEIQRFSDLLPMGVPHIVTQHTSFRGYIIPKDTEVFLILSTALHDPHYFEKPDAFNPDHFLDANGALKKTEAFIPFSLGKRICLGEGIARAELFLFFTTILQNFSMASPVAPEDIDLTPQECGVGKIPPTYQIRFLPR
Test: CYP inhibition, cocktail of probe substrates in pooled human liver microsomes: bupropion hydroxylation
Format: in vitro ADME
Conditions: pooled HLMs, substrate 50 μM
Protocol: All incubations were performed in duplicate, and data are presented as means. Briefly, each reaction was performed with 0.5 mg/mL pooled human liver microsomes in a final incubation volume of 0.1 mL. The incubation medium consisted of 0.1 M potassium phosphate buffer (pH 7.4) containing cocktail of probe substrates and a NADPH-generating system (NGS) of 0.1 M glucose 6-phosphate, 10 mg/mL β-NADPH, and 1.0 U/mL glucose-6-phosphate dehydrogenase. To investigate the IC50 of bakuchicin during CYP1A inhibition, bakuchicin (at final concentrations of 0–25 μM) was incubated without preincubation. In addition, the mixture with bakuchicin was preincubated for 15 min without the probe substrate cocktail in the presence or absence of 1 mM β-NADPH. After the reaction was initiated by adding the NGS for 60 min, incubated samples were terminated by adding 100 μL acetonitrile containing 0.1% formic acid and 2.5 μL of internal standard solution (5 μM reserpine) in methanol. After mixing and centrifuging at 13,000 ×g for 12 min, a 5 μL aliquot was injected onto a C18 column for LC-MS/MS analysis.
All measurements were performed using LC-MS/MS in multiple reaction monitoring mode. LC-MS/MS was performed using an Accela™ LC system coupled to a TSQ Vantage triple quadrupole mass spectrometer (Thermo Fisher Scientific Inc., USA) equipped with a HESI-II Spray source. Electrospray ionization was performed in positive mode at a spray voltage of 3,500 V (except for the detection of 6-hydroxy chlorzoxazone). Nitrogen was used as a sheath and auxiliary gas at optimum values of 45 and 20 (arbitrary units), respectively. Vaporizer and capillary temperatures were 150 and 300°C, respectively. For LC analysis an Inertsil® ODS-2 (3 μm, 2.1 × 150 mm) column (GL Sciences Inc., Torrance, CA) was used. The mobile phase consisted of acetonitrile (mobile phase A) and water (mobile phase B), both of which contained 0.1% formic acid, at a flow rate of 0.22 mL/min at 30°C.
All incubations were performed in duplicate, and data are presented as means. […]

O=c1ccc2c(ccc3ccoc32)o1 [Bakuchicin]
IC50 (15 min preincubation with NADPH, read-out: IC50 With preincubation with NADPH): 11.5 µM
IC50 (15 min preincubation without NADPH, read-out: IC50 With preincubation Without NADPH): 16.4 µM
IC50 (without preincubation, read-out: IC50 Without preincubation): 14.2 µM
